Where a name gives a salt, the structure may show the parent alone. Read-outs that look alike come from different tables or passages of the source.
Assays:
[1] = cited from earlier work
[2] = In vitro testing of iontophoretic delivery of terbinafine forms and hydrogel formulations to the nail bed
Source text: The acetic acid terbinafine salt may be used in the preparation of a medication for the treatment of any suitable disorder, such as the treatment of a fungal infection. In one aspect, the acetic acid terbinafine salt may be for treatment of onychomycosis.
The terbinafine acetate and/or mixture of terbinafine and acetic acid may be added to a hydrogel.

[3] = cited from earlier work; remark: listed apart in the source
[4] = tested on: dermatophytes; conditions: cited from earlier work

Compound: CN(C/C=C/C#CC(C)(C)C)Cc1cccc2ccccc12 [terbinafine base, N,6,6-trimethyl-N-(naphthalen-1-ylmethyl) hept-2-en-4-yn-1-amine]
- water solubility ([1]; listed as Terbinafine base): significantly less water soluble
- delivery of terbinafine to the nail bed [2]: about 10 μg/cm^2

Compound: terbinafine acetate
- delivery of terbinafine to the nail bed ([2]; in vitro, iontophoretic delivery, similar conditions): about 150 μg/cm^2

Compound: CN(C/C=C/C#CC(C)(C)C)Cc1cccc2ccccc12 [terbinafine, N,6,6-trimethyl-N-(naphthalen-1-ylmethyl) hept-2-en-4-yn-1-amine]
- solubility in methanol and ethanol [1]: very soluble
- water solubility [1]: low
- pKa of terbinafine [3]: about 7.1

Compound: CN(C/C=C/C#CC(C)(C)C)Cc1cccc2ccccc12 [terbinafine HCl, terbinafine hydrochloride]
- delivery of terbinafine to the nail bed [2]: about 45 μg/cm^2
- minimum inhibitory concentration (MIC) for dermatophytes [4]: about 0.0015 μg/ml

Source: patent US20100168233A1, “TERBINAFINE FORMULATION” (POWER PAPER LTD, priority 2007, published 2010)
